Columns and labels:
Format in all cases: physicochemical
[1] = UV spectrophotometer lambda max in diethylene glycol dimethyl ether solution; conditions: for lambda max compared with compound samples A, B and D (in words): Table 1 values vs. samples A, B and D of Table 2; for LAMBDA MAX: in diethylene glycol dimethyl ether, approximately 0.5 milligrams per milliliter
Protocol: The principal products of Examples 1, 2 and 3 were dissolved in diethylene glycol dimethyl ether. The concentrations of the resulting solutions were approximately 0.5 milligrams per milliliter. Each solution was tested in a UV spectrophotometer to determine its lambda max. The lambda max reported in Table 1 is the wavelength in the ultraviolet range closest to the visible spectrum or in the threshold range, i.e., 390 to 410 nanometers, of the visible spectrum, at which the maximum absorption and activation of the photochromic compound occurs in diethylene glycol dimethyl ether.

[2] = Colour change of diethylene glycol dimethyl ether solution on ultraviolet irradiation
[3] = Photochromic response (sensitivity, saturation optical density) of imbibed polymer test squares on optical bench; conditions: for Δ OD @ SATURATION: UV exposure continued for 20 minutes; for Δ OD/min. SENSITIVITY: first five (5) seconds of UV exposure, expressed per minute, photopic filters, about one sun
Protocol: (§1) These compounds were imbibed by thermal transfer into test squares of a polymeric matrix prepared from a diethylene glycol bis(allyl carbonate) composition by the following procedure: Each photochromic compound was dissolved in toluene to form a 4 weight percent solution of the compound. A piece of No. 4 Whatman filter paper was saturated with the toluene solution of the photochromic compound and allowed to air dry. The dried filter paper was placed on one side of the polymer test square, which measured 1/8 inch (0.3 centimeter)×2 inch (5.1 centimeters)×2 inch (5.1 centimeters). A piece of untreated filter paper was placed on the other side of the polymer test square and the resulting sandwich placed between two plates of flat aluminum metal plates. […] The imbibed test squares were washed with acetone after removal from the oven.
(§2) The imbibed polymer test squares were tested for photochromic response rates on an optical bench. The samples were illuminated by a 150 watt Xenon lamp fitted with a copper sulfate bath and a neutral density filter at an intensity of about one sun. A second beam of light provided by a filtered tungsten lamp arranged to pass through the sample area exposed by the UV source was used to monitor changes in transmission of the sample over different wavelength ranges in the visible region of the spectrum. The intensity of the monitoring beam after passing through the sample was measured by means of an IL-1500 radiometer equipped with a silicon detector head and matching filters.
(§3) The Δ OD/min., which represents the sensitivity of the photochromic compound's response to UV light, was measured using photopic filters on the silicon detector. The response of the filtered detector approximated the luminosity curve. The Δ OD was measured over the first five (5) seconds of UV exposure, then expressed on a per minute basis. The saturation optical density (OD) was taken under identical conditions as the Δ OD/min., except UV exposure was continued for 20 minutes. The lambda max reported in Table 2 is the wavelength in the ultraviolet range closest to the visible spectrum or in the threshold range, i.e., 390 to 410 nanometers, of the visible spectrum at which the maximum absorption and activation of the photochromic compound occurs in the polymer matrix test squares.

[4] = Bleach rate of imbibed polymer test squares; conditions: for BLEACH RATE T 1/2: 25.7±0.5° C., after removal of activating light
Protocol: as §1, §2

[5] = Lambda max in imbibed polymer matrix test squares; conditions: for LAMBDA MAX: in polymer matrix test squares of diethylene glycol bis(allyl carbonate)
Protocol: as §1, §3

| Compound | lambda max compared with compound samples A, B and D (in words) [1] | LAMBDA MAX [1] | colour of solution after the ultraviolet light was removed [2] | colour of solution before irradiation [2] | colour of solution when irradiated with ultraviolet light [2] | Δ OD @ SATURATION [3] | Δ OD/min. SENSITIVITY [3] | optical density at saturation compared with the other compounds (in words) ([3]; polymer test squares) | sensitivity compared with the other compounds (in words) ([3]; polymer test squares) | BLEACH RATE T 1/2 [4] [min] | bleach rate (in words) ([4]; polymer test squares) | LAMBDA MAX [5] | absorption maxima in the UV spectrum compared with compounds A, B and D (in words) ([5]; polymer test squares) |
| --- | --- | --- | --- | --- | --- | --- | --- | --- | --- | --- | --- | --- | --- |
| 1,3,3,4,5(or 1,3,3,5,6,)-pentamethyl-9'-methoxy-carbonyl-8'-acetoxy-spiro[indoline-2,3'-[3H]naphth[2,1-b][1,4]oxazine] [Example 3] | relatively high lambda max values | 374 | returned to its original colorless condition | colorless | changed to blue |  |  |  |  |  |  |  |  |
| 1,3,3,4,5(or 1,3,3,5,6,)-pentamethyl-9'-methoxycarbonyl-8'-hydroxy-spiro[indoline-2,3'-[3H]naphth[2,1-b][1,41oxazine] [Example 1] | relatively high lambda max values | 403 | returned to its original slightly colored condition | slight yellow cast | changed to green |  |  |  |  |  |  |  |  |
| 1,3,3,4,5(or 1,3,3,5,6,)-pentamethyl-9'-methoxycarbonyl-8'-methoxy-spiro[indoline-2,3'-[3H]naphth[2,1-b][1,41oxazine] [Example 2] | relatively high lambda max values | 383 | returned to its original colorless condition | colorless | changed to blue |  |  |  |  |  |  |  |  |
| 1-propyl-3,3,4,5(or 3,3,5,6)-tetramethyl-9'-methoxycarbonyl-8'-acetoxy-spiro[indoline-2,3'-[3H]naphth[2,1-b][1,4]oxazine] [Compound C] |  |  |  |  |  | 0.42 Δ OD | 0.46 Δ OD/min. | higher optical density at saturation | improved sensitivity | 2.27 | acceptable bleach rate | 374 | unexpectedly higher than compounds A, B and D |
| 1propyl-3,3,4,5(or 3,3,5,6)tetramethyl-spiro[indoline2,3[3H]naphth[2,1b][1,4]oxazine] |  |  |  |  |  | 0.11 Δ OD | 0.21 Δ OD/min. |  |  | 0.783 |  | 346 |  |
| CCCN1c2cc(C)c(C)cc2C(C)(C)C12C=Nc1c(ccc3ccc(OC)cc13)O2 (centres unmarked) [A, 1propyl-3,3,5,6-tetramethyl-9methoxy-spiro[indoline2,3[3H]naphth[2,1b][1,]oxazine]] |  |  |  |  |  | 0.11 Δ OD | 0.15 Δ OD/min. |  |  | 1.17 |  | 336 |  |
| CCCN1c2cc(C)c(C)cc2C(C)(C)C12C=Nc1c(ccc3ncccc13)O2 (centres unmarked) [B, 1propyl-3,3,5,6-tetramethyl-spiro[indoline2,3[3H]pyrido[3,2f][1,4]benzoxaine]] |  |  |  |  |  | 0.36 Δ OD | 0.44 Δ OD/min. |  |  | 1.15 |  | 350 |  |

— US5405958A, “Photochromic spiro(indoline)naphthoxazine compounds” (Transitions Optical, Inc., priority 1992, dated 1995)
